{"source": "patent US9139811B2", "about": "“Composition for suspension culturing of stem cells” (SEOUL NATIONAL UNIVERSITY HOSPITAL, priority 2011, dated 2015)", "key": {"[1]": {"test_system": "ERK (extracellular signal-regulated kinase)", "assay": "Western blotting of ERK phosphorylation in suspension-cultured cells", "type": "cell-based, human", "conditions": "suspension culture for 6 hours, Y27632-treated vs control (naive) cells, FIG. 4", "procedure": "(§1) In order to measure a change in the expression of an anti-apoptosis factor in a cell sample, the expression level of BCL-XL was measured at the protein level. In addition, the cells were collected after suspension culture for 6 hours, and the degree of phosphorylation of ERK which is involved in the activity of the cells was evaluated. Specifically, the cells were lysed with a reducing agent [Lysis PreMix (4° C. stock)+NaF ([…], ×100)+orthovanadate (200 mM, ×200)+proteinase inhibitor cocktail (1 tablet/10 ml)], and then electrophoresed on SDS-polyacrylamide gel. Then, the cells were transferred to a PVDF transfer membrane (Millipore), after which a change in the expression of the protein was examined by a primary antigen-antibody reaction using BCL-xl (Santa Cruz Biotechnology) and a secondary antigen-antibody reaction using anti-rabbit IgG and anti-mouse IgG."}, "[2]": {"test_system": "Human mesenchymal stem cells (BM-MSC)", "assay": "Suspension culture of human mesenchymal stem cells, trypan blue staining and cell counting", "type": "cell-based", "conditions": "for cell aggregation / apoptosis of non-aggregated single cells: 24 hours of culture, FIG. 2; for apoptosis of non-aggregated single cells: trypan blue staining", "procedure": "Human mesenchymal stem cells (Lonza, Switzerland) were cultured in 10% FBS-containing α-MEM medium such that no contact inhibition occurred. […] Then, the cells were treated with 0.25% trypsin/EDTA and allowed to stand in a CO2 incubator at 37° C. for 30 seconds. The cells that dropped into the tube were collected, and the cells remaining in the dish were completely collected with 10% FBS-containing α-MEM, and the collected cells were centrifuged at 1500 rpm for 5 minutes. The supernatant medium was removed by suction, and the precipitated cells were suspended in 5 ml of EB medium (80% DMEM/F12 80%+20% serum replacement) and then centrifuged at 1500 rpm for 5 minutes. Then, the cells were suspended in 10 ml of medium (containing or not containing 20 μM Y27632) in a 100 Φ Petri dish at a density of 2.0×10^6 cells. After 24 hours, the aggregated cells were stained with trypan blue, and then counted with an automated cell counter (Invitrogen)."}, "[3]": {"test_system": "HGF (hepatocyte growth factor)", "assay": "HGF ELISA of culture supernatant", "type": "cell-based, human", "conditions": "vs untreated control cells and EDTA-treated control cells, FIG. 5", "from_the_text": "(§2) In vivo conditions in which treatment of cells is required are mostly ischemic anoxic anaerobic conditions in which the cells are injured or broken, and one of major factors in the conditions is HGF (hepatocyte growth factor). Thus, in order to examine the expression level of the hepatocyte growth factor HGF, the supernatant was collected from the cell sample and analyzed by ELISA (enzyme-linked immunosorbent assay) using a HGF-specific antibody according to the manufacturer's protocol."}, "[4]": {"test_system": "Human mesenchymal stem cells", "assay": "Suspension culture of human mesenchymal stem cells under anoxic anaerobic condition and cell counting", "type": "cell-based", "conditions": "for number of dead cells / number of viable cells / total number of cells / viability: anaerobic condition, 20 μM Y27632", "procedure": "Human mesenchymal stem cells were cultured in 10% FBS-containing α-MEM medium such that no contact inhibition occurred. […] Then, the cells were treated with 0.25% trypsin/EDTA and allowed to stand in a CO2 incubator at 37° C. for 30 seconds. The cells that dropped into the tube were collected, and the cells remaining in the dish were completely collected with 10% FBS-containing α-MEM, and the collected cells were centrifuged at 2000 rpm for 5 minutes. The supernatant medium was removed by suction, and the precipitated cells were suspended in 5 ml of EB medium (80% DMEM/F12 80%+20% serum replacement) and then centrifuged at 1500 rpm for 5 minutes. Then, the cells were suspended in 10 ml of medium (containing or not containing 20 μM Y27632) in a 100 0 Petri dish at a density of 2.0×10^6 cells. Then, the cells were placed in an anoxic pack (BD Science) to induce an anoxic anaerobic condition. […]"}, "[5]": {"test_system": "HGF (hepatocyte growth factor)", "assay": "Suspension culture of single cells using E-cadherin blocker: HGF expression", "type": "cell-based, human", "conditions": "aggregation inhibited with E-cadherin blocking antibody, Y-27632 for 24 hours, FIG. 9", "from_the_text": "as §2\nIn order to use E-cadherin to induce single-cell culture during suspension culture, the cells were treated with an E-cadherin blocker to inhibit the induction of cell aggregation during suspension culture. Specifically, human mesenchymal stem cells were cultured in 10% FBS-containing α-MEM medium such that no contact inhibition occurred. When a confluence of about 80% was reached, the medium was removed by suction for cell counting, and the cells were washed with PBS (calcium-free and magnesium-free). Then, the cells were treated with 0.25% trypsin/EDTA and allowed to stand in a CO2 incubator at 37° C. for 30 seconds. The cells that dropped into the tube were collected, and the cells remaining in the dish were completely collected with 10% FBS-containing α-MEM, and the collected cells were centrifuged at 1500 rpm for 5 minutes. […]"}, "[6]": {"test_system": "BCL-XL", "assay": "Western blotting of BCL-XL expression in suspension-cultured cells", "type": "cell-based, human", "conditions": "Y27632-treated vs control (naive) cells, FIG. 3", "procedure": "as §1"}, "[7]": {"conditions": "20 μM Y27632, suspension culture 24 hours, trypan blue"}}}
{"smiles": "C[C@@H](N)[C@H]1CC[C@H](C(=O)Nc2ccncc2)CC1.Cl.Cl", "note": "(relative stereo) [Y27632, trans-4-[(1R)-1-Aminoethyl]-N-4-pyridinyl-cyclohexanecarboxamide, 2HCl]", "values": [{"measurement": "phosphorylation of ERK", "setting": "[1]", "value": "significantly increased"}, {"measurement": "total number of cells", "setting": "[2]; 20 μM Y27632, suspension culture 24 hours", "value": "1.8×10^6"}, {"measurement": "number of dead cells", "setting": "[2]; [7]", "value": "0.54×10^6"}, {"measurement": "number of viable cells", "setting": "[2]; [7]", "value": "1.26×10^6"}, {"measurement": "viability", "setting": "[2]; [7]", "value": 70, "unit": "%"}, {"measurement": "cell aggregation", "setting": "[2]", "value": "further increased"}, {"measurement": "apoptosis of non-aggregated single cells", "setting": "[2]", "value": "prevented"}, {"measurement": "expression level of HGF", "setting": "[3]", "value": "significantly higher"}, {"measurement": "number of dead cells", "setting": "[4]; 6 hours of culture", "value": "2.4×10^5"}, {"measurement": "number of viable cells", "setting": "[4]; 6 hours of culture", "value": "1.2×10^6"}, {"measurement": "total number of cells", "setting": "[4]; 6 hours of culture", "value": "1.6×10^6"}, {"measurement": "viability", "setting": "[4]; 6 hours of culture", "value": 84, "unit": "%"}, {"measurement": "number of dead cells", "setting": "[4]; 24 hours of culture", "value": "1.6×10^5"}, {"measurement": "number of viable cells", "setting": "[4]; 24 hours of culture", "value": "1.24×10^6"}, {"measurement": "total number of cells", "setting": "[4]; 24 hours of culture", "value": "1.4×10^6"}, {"measurement": "viability", "setting": "[4]; 24 hours of culture", "value": 90, "unit": "%"}, {"measurement": "apoptosis of single cells", "setting": "[4]; anoxic anaerobic condition, FIG. 7", "value": "did not undergo apoptosis"}, {"measurement": "HGF efficiency (expression level of HGF)", "setting": "[5]", "value": "increased"}, {"measurement": "expression of the anti-apoptosis factor BCL-XL", "setting": "[6]", "value": "significantly increased"}]}
{"smiles": "O=C(O)CN(CCN(CC(=O)O)CC(=O)O)CC(=O)O", "note": "[EDTA]", "values": [{"measurement": "cell aggregation", "setting": "[2]", "value": "no cell aggregation occurred"}, {"measurement": "apoptosis of non-aggregated single cells", "setting": "[2]", "value": "apoptosis occurred in all the cells"}]}
